Results on three compounds are retold here after BindingDB's records for patent US9695170 (FibroGen Inc, 2017).

Structures are written as SMILES.

Egl nine homolog 1, sequence (Q9GZT9 whole entry): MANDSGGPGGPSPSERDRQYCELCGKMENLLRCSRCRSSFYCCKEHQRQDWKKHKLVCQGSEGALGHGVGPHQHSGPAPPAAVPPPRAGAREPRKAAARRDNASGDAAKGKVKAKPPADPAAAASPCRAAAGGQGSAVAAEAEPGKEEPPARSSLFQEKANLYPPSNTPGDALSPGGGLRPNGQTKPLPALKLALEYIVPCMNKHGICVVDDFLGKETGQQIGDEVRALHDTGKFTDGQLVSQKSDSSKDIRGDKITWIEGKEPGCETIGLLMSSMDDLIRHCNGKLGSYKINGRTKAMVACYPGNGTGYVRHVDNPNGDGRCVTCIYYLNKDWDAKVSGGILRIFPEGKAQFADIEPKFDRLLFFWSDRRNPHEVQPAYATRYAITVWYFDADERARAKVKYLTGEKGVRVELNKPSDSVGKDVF

The assay addresses Egl nine homolog 1 (Homo sapiens, UniProt Q9GZT9). As to the kind of experiment: HIF-PH Assay. Conditions: pH 7.4. The source says:
Ketoglutaric acid α-[1-14C]-sodium salt, alpha-ketoglutaric acid sodium salt, and HPLC purified peptide may be obtained from commercial sources, e.g., Perkin-Elmer (Wellesley Mass.), Sigma-Aldrich, and SynPep Corp. (Dublin Calif.), respectively. […] For example, a HIF peptide for use in the HIF-PH assay is [methoxycoumarin]-[…]-amide. HIF-PH, e.g., HIF-PH2 (EGLN1), can be expressed in, e.g., insect Hi5 cells, and partially purified, e.g., through a SP ion exchange chromatography column. […] Reactions are initiated by addition of HIF-PH enzyme.
For the compound `COC(=O)NCCNC(=O)c1nc(C#N)c2ccc(=O)n(Cc3ccccc3)c2c1O` [US9695170 95], half-maximal inhibition (IC50) required 134 µM. `COC(=O)NCCNC(=O)c1ncc2ccc(=O)n(Cc3ccccc3)c2c1O` [US9695170 96] showed an IC50 of 137 µM. Turning to `Cc1ccncc1-c1nc(C(=O)NCCC(=O)O)c(O)c2cc(-c3ccccc3)c(=O)n(Cc3ccccc3)c12` [US9695170 179], the half-maximal inhibitory concentration (IC50) is 176 µM.
